From patent US20060159676A1, “Methods for modulating angiogenesis, lymphangiogenesis, and apoptosis with apelin compositions” (priority 2005, published 2006)

How the values were obtained:
apelin expression = experiment: Apelin expression in rat cardiac myocytes under cobalt chloride (hypoxia mimic), PCR; type: cell-based
Description: Because HIF-1α consensus sites are present in the apelin regulatory region, experiments were conducted to determine whether apelin expression is hypoxia responsive and regulated by HIF-1α. Upregulation of apelin expression under hypoxic conditions would be consistent with a role for apelin in promotion of tumor angiogenesis. Preliminary experiments were carried out using primary rat cardiomyocyte cells in culture and treatment with cobalt chloride. This procedure is accepted as an equivalent to culturing cells under hypoxic conditions because HIF-1α is a metal responsive transcription protein (Ladoux and Frelin, 1994; Piret et al., 2002; Maxwell and Salnikow, 2004). Fetal rat cardiac myocytes were plated and cultured in DMEM (Invitrogen, Carlsbad, Calif.) supplemented with 10% fetal calf serum and penicillin/streptomyocin at 37° C. After four days of culture, medium was removed, and cells were treated with fresh media containing 150 μM Cobalt Chloride (Piret et al., 2002). […] After 4 hours of culture, cells were harvested, and total RNA was extracted using the Trizol procedure according to the manufacturers recommendations (Invitrogen, Carlsbad, Calif.).
Following PCR, amplification products were fractionated on an agarose gel and visualized using ethidium bromide staining under ultraviolet light (FIG. 12). […]

[1] = tested on: BAE/APJ#2 cells (bovine aortic endothelial cells expressing mouse APJ); experiment: BAE/APJ#2 endothelial cell proliferation (BrdU incorporation); type: cell-based; conditions: SU1498 10 ng/ml
Description: SU1498 was included in proliferation cultures at a concentration of 10 ng/ml and results were assayed using BrdU incorporation. After growth factor incubation, BrdU was added to each well at a final concentration of 10 μM for 2 hours, cells were washed, and fixed for BrdU immunocytochemistry.
Cells were fixed in 100% ice cold methanol at 4° C. for 2 hours to overnight. Prior to staining, cells were air dried and rehydrated for 3 minutes with PBS buffer. DNA was denatured at 37° C. with 2 M HCl, and neutralized with 2 washes for 5 minutes in 0.1 M borate buffer (pH 8.5). […] FITC-labeled anti-BrdU antibody (5 μg/ml) in block was added for 1 hour at room temperature. Cells were counterstained with propidium iodide following several washes in PBS buffer. For each experiment, 4 random fields were photographed for determination of percentage BrdU labeling.

[2] = tested on: mouse endothelial cells (bEnd3); experiment: bEnd3 endothelial cell proliferation (BrdU incorporation); type: cell-based
Description: Similar cellular proliferation assays were performed using mouse endothelial cells (bEnd3) that constitutively express APJ. […] SU1498 was included in proliferation cultures at a 25 μM concentration, and results were assayed using BrdU incorporation.
Proliferation inhibition experiments with the bEnd3 cells also were carried out using FGF (50 ng/ml) or the FGF pathway inhibitor SU5402 (FIG. 19). SU5402 was included in proliferation cultures at a 20 μM concentration, and results were assayed using BrdU incorporation.

BAE/APJ#2 cells = conditions: 10 ng/ml in bottom chamber, 16 hours
Description: Bovine aortic endothelial cells (BAE) were cultured in DMEM supplemented with 10% fetal bovine serum (FBS) and penicillin/streptomycin. For generation of stable cell lines expressing APJ, the mouse APJ coding region was cloned into the pcDNA 3.1 vector downstream of the CMV promoter, in frame with a myc epitope at the C-terminal end of the protein, and upstream of the neomycin gene. Bovine aortic endothelial (BAE) cells were transfected with this construction using the Superfect transfection kit (Qiagen) and selected for resistance to G418 (600 μg/ml). Colonies were isolated and screened using RT-PCR for expression of mouse APJ and also by immunocytochemistry for expression of the myc epitope.
Cell migration assays were performed using Transwell cell culture migration chambers (Becton Dickinson) with 8 micron pore size. BAE/APJ#2 cells were plated in serum free conditions in 100 μl at a concentration of 1×10^5 ml in the upper chamber of the migration chamber. Following cell attachment to the membrane, 10 ng/ml of growth factor was added to the bottom chamber, in a total volume of 0.5 ml. […] Cells attached to the membrane in the lower chamber were stained with DAPI, and 3 random fields were counted for each experimental condition.

[3] = tested on: lymphatic endothelial cells; experiment: In vivo lymphatic cell number assay, quail CAM (Prox1 staining); conditions: collagen disk with 50 ng apelin or 100 ng VEGF-C on CAM of 7 day quail embryos, 18 hours
Description: All experiments were carried out using chorioallantoic membranes (CAMs) of quail embryos. Quail embryos used for the lymphatic experiments were 7 days old. Collagen purified from rat tails (Bernanke and Markwald, 1982) was polymerized in 2 mm disks at a final concentration of approximately 1.6 mg/ml in standard phosphate buffered saline (PBS). The total volume of the collagen disk was approximately 10 μl. For experimental treatments, the collagen disks were supplemented with either 50 ng of apelin peptide or 100 ng of VEGF-C protein prior to polymerization at 37° C. for 30 minutes. The VEGF-C was a positive control for these experiments. (Recombinant Human VEGF-C (Cys156Ser), R&D Systems, cat # 752-vc). Apelin peptide was synthesized by Sigma-Genosys (>90% purity). […]
(§1) The samples were incubated with primary antibody (Prox1, Research Diagnostics, cat # RDI-102PA30, diluted to 2 μg/ml final concentration) for 4 hours at room temperature or overnight at 4° C. […] Both the lymphatic cell number as well as the number of lymphatic branches were determined.
Assays for lymphatic cell number were carried out in areas of the CAM that were close to the location of the collagen disk as described above. Since Prox1 specifically stains lymphatic endothelial cell nuclei, the number of cells in the lymphatic branches was counted directly. […]

lymphatic vessels = experiment: In vivo lymphatic vessel branching assay, quail CAM; conditions: collagen disk with 50 ng apelin or 100 ng VEGF-C on CAM of 7 day quail embryos, 18 hours
Description: All experiments were carried out using chorioallantoic membranes (CAMs) of quail embryos. Quail embryos used for the lymphatic experiments were 7 days old. Collagen purified from rat tails (Bernanke and Markwald, 1982) was polymerized in 2 mm disks at a final concentration of approximately 1.6 mg/ml in standard phosphate buffered saline (PBS). The total volume of the collagen disk was approximately 10 μl. For experimental treatments, the collagen disks were supplemented with either 50 ng of apelin peptide or 100 ng of VEGF-C protein prior to polymerization at 37° C. for 30 minutes. The VEGF-C was a positive control for these experiments. (Recombinant Human VEGF-C (Cys156Ser), R&D Systems, cat # 752-vc). Apelin peptide was synthesized by Sigma-Genosys (>90% purity).
For lymphangiogenesis assays, the CAMs of 7 day quail embryos were exposed, in ovo, and the collagen disks were placed directly onto the surface of the CAM. […]
as §1
Both blood vessels and lymphatic vessels were stained with the QH-1 antibody. […] The number of lymphatic vessels branching away from blood vessels (towards the collagen disk) were counted. […]

For [Cl][Co][Cl] [Cobalt Chloride], the apelin expression (apelin expression; 150 μM Cobalt Chloride, 4 hours, fetal rat cardiac myocytes) was “significantly increased” and the apelin expression (apelin expression; Cobalt chloride 30 μg/ml, rat cardiac myocytes) was “induced”.

CC(C)c1cc(/C=C(\C#N)C(=O)NCCCc2ccccc2)cc(C(C)C)c1O [SU1498] was tested, and the “effect on VEGF-mediated proliferation” value ([1]; VEGF 10 ng/ml) was “partially inhibits VEGF-mediated proliferation”, the “effect on apelin-mediated proliferation” value ([1]; apelin 10 ng/ml) was “no significant effect on apelin-mediated proliferation” and the “effect on VEGF-mediated proliferation” value ([2]; SU1498 25 μM, VEGF 50 ng/ml) was “partially inhibits VEGF-mediated proliferation”. For the same molecule, the “effect on apelin-mediated proliferation” value ([2]; SU1498 25 μM, apelin 10 ng/ml) was “no significant effect on apelin-mediated proliferation”.

For Cc1c[nH]c(/C=C2\C(=O)Nc3ccccc32)c1CCC(=O)O [SU5402], the “effect on FGF-mediated proliferation” value ([2]; SU5402 20 μM, FGF 50 ng/ml) was “partially inhibited the proliferative effect of FGF” and the “effect on apelin-stimulated cellular proliferation” value ([2]; SU5402 20 μM, apelin 10 ng/ml) was “did not have a significant effect on apelin-stimulated cellular proliferation”.

For VEGF, the “endothelial cell migration (cells per field)” value (BAE/APJ#2 cells) was “increase in migration” and the “cellular proliferation of endothelial cells” value ([2]; apelin 10 ng/ml or VEGF 50 ng/ml, 0.1 ng/ml to 1 μg/ml (FIG. 17)) was “proliferate upon the addition of VEGF or apelin”.

B1: VEGF-C: Recombinant Human VEGF-C (Cys156Ser), R&D Systems; positive control for lymphangiogenesis (protein, UniProt P49767 112-227, looked up, variant C156S)
Vascular endothelial growth …: AHYNTEILKSIDNEWRKTQCMPREVCIDVGKEFGVATNTFFKPPSVSVYRCGGCCNSEGLQCMNTSTSYLSKTLFEITVPLSQGPKPVTISFANHTSCRCMSKLDVYRQVHSIIRR
B1 was tested, and the “lymphatic cell number (Prox1 positive nuclei)” value [3] was “mitogenic factor for lymphatic endothelial cells” and the “number of lymphatic vessels branching away from blood vessels” value (lymphatic vessels) was “positive regulator of lymphatic branching angiogenesis”.
